From patent US10702568B2, “Compositions containing silymarin and sulfoalkyl ether cyclodextrin and methods of using the same” (UNIVERSITY OF KANSAS, priority 2015, dated 2020) come the findings set out here.

In brackets after ≈: the same amount, converted by molar mass.

Broadly, the solubility is how much of the substance goes into solution per volume. Read a high solubility as much dissolved substance. By logD is commonly meant the decadic logarithm of the distribution of all forms, ionised or not, between an organic phase and buffer at a given pH. The AUC(0-t) is the area under the concentration-time curve up to a stated or last time point. For orientation: Cmax means the peak of the concentration-time curve. One may read the Tmax as the time from dosing to the highest level.

Data set [1] is described as follows: Silymarin solubility in water, CAPTISOL® solution and γ-cyclodextrin solution (Example 2, HPLC). It is filed as physicochemical. The following applies: water, thermodynamic from solid, Solubility (mg/ml) of components of silymarin. How it is done: The solutions were centrifuged for 10 min at 13K rpm. An aliquot of the supernatant was diluted 1:5 for Water, 1:25 for γ-Cyclodextrin and 1:100 for both 0.20 M CAPTISOL® and 0.20M HP-B-Cyclodextrin using MeOH as the diluent. The standard reference was prepared by dissolving silymarin in 10 mg/mL of DMSO and then diluted to 0.50 mg/mL using MeOH.
The change of the saturated solubility of the various components of silymarin in each of the four types of samples can be seen in FIG. 4.
The data shown in Table 6 is plotted in FIGS. 5 and 6. The change of the solubility of the various components of silymarin in each of the three samples can be seen in FIG. 5. The total mutual saturated solubility of all flavonolignan components can be seen in FIG. 6. […] The various components of silymarin also have increased solubility in the CAPTISOL® (0.2M) sample.

Data set [2] can be described thus: Solubility of silymarin components in water (Example 10, HPLC). The following applies: water. It is filed as physicochemical. On the procedure:
(§1) Silymarin components including taxifolin, silydianin, silychristin, silybin A, silybin B, isosilybin A, and isosilybin B were tested for their solubility in water and also for their Log D value. The silymarin extract was obtained from Indena® (Indena Code: 9065110). The HPLC system consisted of Waters system equipped with performance PLUS inline degasser along dual λ absorbance detector set at 288 nm. The chromatographic separation of silymarin constituents was achieved on a Symmetry Shield RP18 column (150×4.6 mm, 5 μm); which was maintained at ambient room temperature conditions. The binary mobile phase system consisted of reservoir A (methanol: 10 mM ammonium acetate pH 5 [65:35 v/v]) and reservoir B (10 mM ammonium acetate, pH 5) were run as per gradient program (0-1.9 min: 25% A and 75% B; 2.0-14.9 min: 80% A and 20% B and 15-37.9 min: 80% A and 20% B and 38-40 min: 25% A and 75% B). The flow rate was 1 mL/min throughout the analytical run.

Data set [3] in a line: Log D of silymarin components (octanol/buffer, HPLC). The format is physicochemical. The following applies: pH 7.4. On the procedure:
as §1
To determine the Log D of silymarin components, the silymarin extract (2 mg) was dissolved in 100% DMSO and then used for the experiment. Different buffers between pH ranges of 1.0 to 12 were prepared by using universal buffer stock containing 25 mM hydrochloric acid, 25 mM citric acid, 25 mM phosphoric acid, 30 mM boric acid and 20 mM sodium chloride. About 45 mL of universal buffer was titrated with Sodium hydroxide (5M) to obtain desired pH. A 10 μL of silymarin stock solution was spiked into Eppendorf tube containing 500 μL each of a buffer and presaturated octanol. This mixture was vortexed for 5 minutes and kept for shaking at room temperature. After 16 h, the mixture was centrifuged at 10,000 RPM for 30 minutes. After centrifugation buffer and octanol phases were separated, both phases were diluted with acetonitrile (1:1) and subject to HPLC analysis for quantitation of individual components of silymarin. The Log D values of each compound at a pH was determined by Log D (pH)=Log [Organic (peak area)/Aqueous (peak area)].

Data set [4] is described as follows: Pharmacokinetic study in rat. The format is in vivo. The following applies: in vivo; for AUC(0-t): AUC(0-2 h) (ng · h/mL); for Cmax: Cmax (ng/mL). On the procedure:
The Silymarin-CAPTISOL® complex was administered to rat to test its pharmacokinetic properties.
On arrival rats were housed individually in cages at animal care facility in a temperature and humidity controlled room with a 12 h:12 h (light:dark) cycles. The rats were provided with free access to food and water for one week before using for experimental purpose. The 12 rats were equally divided into three groups—Group I: silymarin-CAPTISOL® complex with a CAPTISOL® concentration of 100 mM for oral administration; Group II: silymarin suspension (Control); and Group III: silymarin complex with a CAPTISOL® concentration of 100 mM for intravenous administration. The animals were fasted overnight with free access to water. On the day of experiment, the rat was removed from animal care facility and brought to the procedure lab. The animal was weighed and appropriate dosing volume was determined. For oral administration, rat's head was held in place by gently extending the head back and supporting the lower body. The gavage tube was placed in the mouth and advanced along the lower palate till the esophagus, and the silymarin was administered through the tube. For intravenous administration, the silymarin-CAPTISOL® complex was administered by slow bolus intravenous injection into the tail vein. Approximately 200 μL blood was drawn into heparin coated tubes at pre dose, 0.15, 0.5, 1, 2, 4, 8, 10 and 24 h for oral group II and for intravenous group III. The sampling time points were predose, 0.12, 0.25, 0.5, 1, 2, 4, 8 and 24 h through the jugular vein catheter. Plasma was harvested by centrifuging the blood at 4000 RPM for 5 min and stored frozen at −80±10° C. until analysis.
Stored plasma was thawed just before performing the silymarin components analysis. 200 μL of acetonitrile containing 0.1% of ammonia was added to 50 μL of plasma, and this mixture was vortexed for 5 min and centrifuged at 4° C. for 5 min at 10,000 RPM. After centrifugation, the supernatant was separated and injected into HPLC for analysis of silymarin constituents taxifolin, silydianin, silychristin, silybin A, silybin B, isosilybin A and isosilybin B.
The plasma concentration-time curves of silybin A, silybin B, isosilybin A, and isosilybin B in the Silymarin-CAPTISOL® sample of Group I and the control sample (silymarin suspension) are respectively shown in FIGS. 20A to 20D.

Data set [5] can be described thus: physchem. The following applies: 25 °C, water, thermodynamic from solid, Solubility (mg/ml) of flavonolignan components of silymarin.
Method: (§2) CAPTISOL® was dissolved in water to form four solutions with a CAPTISOL® concentration of 0.05 mol/L, 0.1 mol/L, 0.2 mol/L, and 0.3 mol/L respectively. 12 mg of silymarin powder (Sigma Aldrich) was added to 1 mL of each of the four CAPTISOL® solutions on Day 1, another 12 mg Silymarin powder was added on Day 3, and 19-22 mg Silymarin powder was added on Day 7 to ensure that silymarin reached its maximum solubility in each solution. The solutions were stirred in a water bath at 25° C. The solutions were then centrifuged prior to sampling. The supernatant was diluted in MeOH in preparation for HPLC assay.
(§3) A reference standard was prepared by mixing silymarin with methanol to provide a methanol solution with a silymarin concentration of 0.1 mg/ml.
(§4) HPLC was used to measure the relative concentrations of the different components of silymarin in each sample solution following the method described in Kuki et al., (2012) Chromatogram 75:175-180. The relative concentration of each component of silymarin was measured by comparing the normalized peak area units with that of the standard reference measured by the UV data at 288 nm and assuming equivalent extinction coefficients for all components.
(§5) The relative molar amounts of the ten flavonolignan components of silymarin were calculated by dividing the normalized peak area of each component in a sample by the total normalized peak area of the sample.
(§6) The concentration of each flavonolignan component of silymarin was calculated from the peak areas in Tables 1a and 1b and the total concentration of silymarin (0.1 mg/ml) in the reference sample, assuming constant extinction coefficients for each component.
Data set [6] can be described thus: Silymarin saturated solubility with CAPTISOL® (Example 1, HPLC). The following applies: for solubility: 25 °C, thermodynamic from solid, Solubility (mg/ml) of flavonolignan components of silymarin, saturated with excess silymarin.
Method: as §2, §3, §4, §5, §6

Regarding `COc1cc([C@H]2Oc3ccc([C@H]4Oc5cc(O)cc(O)c5C(=O)[C@@H]4O)cc3O[C@@H]2CO)ccc1O` [Isosilybin A], the concentration in solution in data set [1] (solubility) came to 40 µg/mL (≈ 82.9 µM). Moreover, the concentration in solution in data set [2] (solubility) was 18.8 µg/mL (≈ 39 µM). The logD at 16 h in data set [3] is 2.47. In data set [4] (iv), the AUC(0-t) is 1970 ng·h/mL and the highest level (Cmax) was 4160 ng/mL. The Tmax in data set [4] (iv, Tmax (h)) came to 4.2 min. Moreover, in data set [4] (po), the “% Fabs of silymarin-CAPTISOL® complex compared with silymarin alone” value is “higher % Fabs”, the “AUC of Silymarin-CAPTISOL® complex compared with the control sample” value is on record as “higher AUC”, the “AUC(0-2 h)” value was determined as 150 ng·h/mL and the “Cmax of Silymarin-CAPTISOL® complex compared with the control sample” value is “higher Cmax”. In addition, in data set [4] (po, Tmax (h)), the time of peak concentration (Tmax) worked out at 30 min. Further, the solubility in data set [5] amounted to 40 µg/mL (≈ 82.9 µM).
Turning to `COc1cc([C@@H]2Oc3cc([C@H]4Oc5cc(O)cc(O)c5C(=O)[C@@H]4O)ccc3O[C@H]2CO)ccc1O` [Silybin B], the solubility in data set [1] stood at 30 µg/mL (≈ 62.2 µM); in data set [2], 21.9 µg/mL (≈ 45.4 µM); in data set [6] (0.05 M CAPTISOL in water, aqueous with cosolvent or surfactant or cyclodextrin, CAPTISOL® (0.05M) in water), 5590 µg/mL (≈ 11600 µM); in data set [6] (0.1 M CAPTISOL in water, aqueous with cosolvent or surfactant or cyclodextrin, CAPTISOL® (0.1M) in water), 8930 µg/mL (≈ 18500 µM); in data set [6] (0.2 M CAPTISOL in water, aqueous with cosolvent or surfactant or cyclodextrin, CAPTISOL® (0.2M) in water) it was 13800 µg/mL (≈ 28600 µM); in data set [6] (0.3 M CAPTISOL in water, aqueous with cosolvent or surfactant or cyclodextrin, CAPTISOL® (0.3M) in water) it was 15800 µg/mL (≈ 32600 µM). In addition, the solubility in data set [6] (water, H2O) turned out to be 50 µg/mL (≈ 104 µM). The logD at 16 h in data set [3] was 1.99. Moreover, the AUC(0-t) in data set [4] (iv) amounted to 5070 ng·h/mL. The Cmax in data set [4] (iv) turned out to be 12700 ng/mL. Besides, the Tmax was determined as 7.2 min in data set [4] (iv, Tmax (h)); 37.8 min in data set [4] (po); 30 min in data set [4] (po, Tmax (h)). The “AUC(0-2 h)” value in data set [4] (po) amounted to 395 ng·h/mL. The “Percentages of flavonolignan components of silymarin in the sample” value in data set [6] (CAPTISOL® (0.05M), saturated solubility) is given as 24.01%; in data set [6] (CAPTISOL® (0.1M), saturated solubility), 23.18%; in data set [6] (CAPTISOL® (0.2M), saturated solubility), 20.90%; in data set [6] (CAPTISOL® (0.3M), saturated solubility), 21.96%; in data set [6] (H2O, saturated solubility, share of total normalized peak area), 7.72%; in data set [6] (H2O, saturated solubility, share of total normalized peak area, listed as silybin B) it was “about 7.72%”. Also, in data set [6] (MeOH standard (0.1 mg/ml), reference, share of total normalized peak area), the “Percentages of flavonolignan components of silymarin in the sample” value is 32.00%.
Take `COc1cc([C@@H]2[C@H]3CO[C@@]4(O)C(=O)[C@@H]2C=C([C@H]2Oc5cc(O)cc(O)c5C(=O)[C@@H]2O)[C@@H]34)ccc1O` [Silydianin]: the solubility is 120 µg/mL (≈ 249 µM) in data set [1], 232 µg/mL (≈ 481 µM) in data set [2] and 70 µg/mL (≈ 145 µM) in data set [5]. Also, in data set [3], the logD at 16 h stood at 1.64.
